How the values were obtained:
[1] = tested on: CD14/CD16+ blood macrophages from normal (uninfected) patients; experiment: Susceptibility assay: killing of CD14/CD16+ blood macrophages from normal patients; format: cell-based, human; conditions: FIG. 4, ex vivo
Method: The following procedures/protocols were used in some of the examples that follow. All steps were performed in a biological safety cabinet using Universal Precautions for handling human blood samples and standard aseptic techniques.
The PBMC for the susceptibility assays was prepared in accordance with the following procedures. A cell culture medium was prepared by mixing RPMI+10% FBS+1% sodium pyruvate and filter sterilized using a filter unit with 0.22 micron pore size. The cell pellet was then resuspended in 3 ml of the cell culture medium. The suspension was gently mixed by slowly pipetting up and down 3 times. The cells were counted using a hemacytometer and the cell density was adjusted to 1×10^6 cells/mL in the cell culture medium, followed by mixing by slowly pipetting up and down 3 times. The cells were incubated in a 50 mL sterile polypropylene tube, at 37° C. and 5% CO2 for 1-2 days. […]
Fluorescence emission measurements were obtained with a flow cytometer, using the following instrument settings in BD FACSCAN: 1) Detector: FL1=533 amps; FL2=570 amps; and FL3=550 amps; 2) Threshold=FSC 180; 3) Compensation: FL1 10.5% FL2; FL2 26.1% FL1; FL2 8.3% FL3; FL3 25.4% FL2; 4) Count=50,000 UNgated events.
The ability of polyamine analogs MGBG and CG47 to kill CD14/CD16+ blood macrophages in HIV infected and normal patients was measured. […]

HIV proviral DNA = experiment: HIV proviral load after exposure of mononuclear cells in culture (Example 7); format: cell-based
Method: Mononuclear cells from HIV infected individuals were isolated and exposed to PA-001 in culture under non-adherent conditions for five days. The cells were then separated into CD3+ and CD14+ fractions via antibody-coated magnetic beads using a Miltenyi apparatus. The “-/-” samples represent flow thru after CD3+ and CD14+ cells were removed. Genomic DNA was prepared and then amplified with HIV specific primers and primers homologous to the single copy gene cJun. Results with HIV specific primers were normalized to those obtained with cJun. The number of HIV DNA copies per cellular DNA equivalent after exposure of mononuclear cell cultures from HIV infected individuals to PA-001 under non-adherent conditions for five days is shown in FIG. 7. Results with HIV specific primers were normalized to those obtained with cJun. Each bar represents the mean of three separate determinations. The error bar indicates one standard deviation from the mean. The numbers under the sample designations indicate the % of CD16+ monocytes killed by PA-001. ND=not done.

[2] = patients, Int. J. Cancer 26, 571 (1980); cited from earlier work
SIVmac251 = experiment: SIVmac251-infected, CD8-depleted animals, 250 mg/m^2 on alternate weeks; format: in vivo, rhesus macaque
Method: These experiments once again used SIVmac251-infected, CD8-depleted animals, and again treatment was initiated at five days p.i. For this experiment, however, 250 mg/m^2 PA-001 (MGBG) was used and the animals were treated on alternate weeks, as is done in humans. Two animals were SIVmac251-infected, CD8-depleted, and PA-001 treated, and two were not drug treated, SIVmac251-infected, CD8-depleted controls. As of the time this study was conducted, the treated animals had received four doses of PA-001 and lived past day 55. In contrast, the non-treated animals developed AIDS and SIV encephalitis (SIVE) and in fact, one of the CD8-depleted, non-treated animals had died of AIDS and SIVE and the second non PA-001 treated animal was scheduled for sacrifice due to AIDS.
SIV-infected, CD8-depleted animals without PA-001 treatment (EJ02 and EL95) had higher counts of total monocytes (top) and the CD14+CD16+ subset (bottom). In fact, one of the untreated animals (EJ02) died of AIDS and SIVE at day 55 p.i.

CCNCCCNC/C=C\CNCCCNCC.Cl.Cl.Cl.Cl [CG47, N,N′-bis(3-ethylaminopropyl)-cis-but-2-ene-1,4-diamine tetrahydrochloride]
sensitivity of CD14/CD16+ macrophages from the normal patient [1]: essentially unaffected

CC(/C=N/NC(=N)N)=N\NC(=N)N [MGBG]
HIV proviral load in cells that neither bound to CD14 or CD3 antibodies (HIV proviral DNA; FIG. 7B): effective in reducing | yield of HIV DNA in T cells (HIV proviral DNA; five days, CD3+ fraction): generally decreased slightly | HIV proviral load in CD14+ cells (HIV proviral DNA; five days, non-adherent conditions): significant decreases | toxicity in an anti-cancer regimen [2]: unacceptably toxic | CD14+ and CD16+ monocyte populations (SIVmac251; detailed flow cytometry): significant decreases | survival of treated animals (SIVmac251; four doses of 250 mg/m^2, alternate weeks): > 55 days | absolute numbers of total monocytes (SIVmac251; vs non-treated animals, FIG. 11): lower absolute numbers
